From US20260240844A1, “INHIBITORS OF CHD1L AND USES THEREOF” (The Regents of the University of Colorado, a body corporate, priority 2023, published 2026)
Entries after “also recorded” stand apart in the source; their conditions may differ. Read-outs that look alike come from different tables or passages of the source.

How the values were obtained:
[1] = test system: SUM149PT tumor organoids; test: Tumor organoid cytotoxicity (CellTiter Glo 3D), SUM149PT; format: cell-based; details: for IC50: Homo sapiens, SUM149PT; for increase in potency of the chemotherapy: SUM149PT BRCA1 mutant tumor organoids, + 1.9 μM Compound 6; for improvement of IC50 potency: SUM149PT tumor organoids, combined with Compound 6; for mean synergy score (Bliss): SUM149PT cells
Method: Tumor organoid culture—Cell lines were cultured as tumor organoids by seeding 2,000 to 5,000 cells/well into uncoated 96 well U-bottom Ultra Low Attachment Microplates (Corning) using their corresponding medium.
Luminescence was recorded using the EnVision plate reader (PerkinElmer) and values normalized to the controls using GraphPad Prism.

[2] = test system: SW620 tumor organoids; details: SW620 tumor organoids
[3] = test system: MDA-MB-231 tumor organoids; test: Tumor organoid cytotoxicity, MDA-MB-231; format: cell-based; details: for IC50: Homo sapiens
Method: (§1) Tumor organoid culture—Cell lines were cultured as tumor organoids by seeding 2,000 to 5,000 cells/well into uncoated 96 well U-bottom Ultra Low Attachment Microplates (Corning) using their corresponding medium. Cell aggregation was then promoted by centrifugation of the plates for 15 min at 1,000 rpm followed by the addition of Matrigel (Corning) to a 2-5% final concentration. Tumor organoids were maintained under standard cell culture conditions for 72 h prior to drug treatment.
(§2) Organoids were then transferred to a white solid bottom 96 well plate and incubated with an equal volume of CellTiter Glo 3D reagent (Promega) for 45 min on a shaker at 400 rpm. Luminescence was recorded using the EnVision plate reader (PerkinElmer) and values normalized to the controls using GraphPad Prism.

[4] = test system: PAR in SUM149PT cells; test: PAR immunofluorescence (nuclear / cytoplasmic PAR); format: cell-based
Source text: Inhibition of CHD1L promotes PAR translocation to the cytoplasm. The main role of PARP1 during the DDR is to detect and signal the recruitment of repair machinery to the sites of DNA damage. For that, PARP1/2 catalyze PARylation, which is a pivotal […] protein modification, consisting of the addition of ADP-ribose units to the carboxyl group of acidic residues such as glutamate or aspartate on target proteins by using NAD^+ as substrate. CHD1L is one of the proteins that requires binding to these PAR chains for its activation and subsequent chromatin remodeling. Using immunofluorescence of PAR, the effect of PARPi and CHD1Li on PARylation in SUM149PT cells was investigated. […] In addition, the effect of doxorubicin on nuclear PARylation was reverted by CHD1L inhibition, causing an increase of PAR in the cytoplasm (FIG. 25A-C).

[5] = test system: SW620 tumor organoids; test: cells; details: Homo sapiens
[6] = biological target: T1, PARP2 (Homo sapiens, UniProt Q9UGN5); test: PARP2 trapping (in situ subcellular fractionation, immunofluorescence); format: cell-based; set-up: endogenous in cells; host or cells: SUM149PT; details: SUM149PT cells, 0.01% MMS, 4 h
T1 sequence (Q9UGN5 whole entry): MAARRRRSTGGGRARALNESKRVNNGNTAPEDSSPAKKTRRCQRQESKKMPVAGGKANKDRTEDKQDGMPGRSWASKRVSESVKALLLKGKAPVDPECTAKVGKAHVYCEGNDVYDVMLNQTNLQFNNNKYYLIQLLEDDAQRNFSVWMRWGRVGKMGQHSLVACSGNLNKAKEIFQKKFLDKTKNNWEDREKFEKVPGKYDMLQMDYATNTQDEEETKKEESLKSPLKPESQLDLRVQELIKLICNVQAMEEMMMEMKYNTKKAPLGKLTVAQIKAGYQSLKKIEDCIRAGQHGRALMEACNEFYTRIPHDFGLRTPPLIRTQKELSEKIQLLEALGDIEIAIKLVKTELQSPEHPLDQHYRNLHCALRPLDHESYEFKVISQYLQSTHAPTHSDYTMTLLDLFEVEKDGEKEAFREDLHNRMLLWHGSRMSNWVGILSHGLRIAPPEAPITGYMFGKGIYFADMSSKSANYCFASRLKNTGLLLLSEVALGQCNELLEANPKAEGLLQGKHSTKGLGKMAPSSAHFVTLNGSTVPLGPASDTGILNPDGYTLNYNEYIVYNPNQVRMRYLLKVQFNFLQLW
Method: PARP1/2 and CHD1L trapping—PARP1, PARP2 and CHD1L trapping were assessed. SUM149PT cells were plated at a density of 20,000 cells per well into clear bottom black 96-well plates (PerkinElmer). […] After 4 h incubation, cell media was aspirated and cells were treated for 10 min at 4° C. with cold cytoskeleton (CSK) buffer (10 mM PIPES pH=6.8, 300 mM sucrose, 200 mM NaCl, 3 mM MgCl2) supplemented with 0.6% Triton X-100. […] PARP1 (anti-PARP1 antibody, 1:2000, O/N, 4° C.), PARP2 (anti-PARP2, 1:1000, O/N, 4° C.) and CHD1L (anti-CHD1L, 1:1000, O/N, 4° C.) primary antibodies were then added in antibody dilution buffer (2% BSA in PBS) and incubated O/N at 4° C.
To study the accumulation of bound PARP1/2 on chromatin, in situ subcellular fractioning of SUM149PT cells co-treated with 0.01% methyl methanesulfonate (MMS) and the drug of interest was used, followed by immunofluorescence.

[7] = biological target: T1, PARP2; test: PARP2 enzymatic (colorimetric) assay; format: biochemical
Method: . First, a 96 well plate was coated with histones. Next, the biotinylated NAD^+ substrate was incubated with an activated DNA template, the inhibitor to test and the PARP1/2 enzyme for 1 h at RT. After that, the sample plate was treated with streptavidin-RP for 30 min at RT, followed by addition of the horseradish peroxidase (HRP) substrate until the colorimetric signal was developed. The EnVision plate reader (PerkinElmer) was used to measure the absorbance at 450 nm and the results were plotted and analyzed using GraphPad Prism.

[8] = test system: SW948 tumor organoids; test: cells
Method: ATM is an important protein involved in the initial stages of the DNA damage response. […] ATM mutations are important markers being developed to identify metastatic CRC (mCRC) patients that may be sensitive to DNA damaging chemotherapy.
Synergy was assessed using the Bliss model.

[9] = test system: MiaPaca2 cells; test: MiaPaca2 cell viability, combination with chemotherapy; format: cell-based; details: for calculated mean synergy score: MiaPaca2 cells; for IC50: Homo sapiens, MIA PaCa-2, MiaPaca2 cells, read-out: IC50 5-FU
Source text: The cell viability assays and Bliss synergy analyses are as described above in Examples 1-9 and 11-12.

[10] = test system: HCC1937 tumor organoids; test: Tumor organoid cytotoxicity, HCC1937; format: cell-based; details: Homo sapiens; HCC1937 (BRCA1 mutant HR-deficient); read-out: IC50, tumor organoid viability, single agent
Method: as §1, §2

[11] = SW948 tumor organoids, combined with 5FU
[12] = SW948 tumor organoids, combined with SN38

## O=C(c1cc(Cc2n[nH]c(=O)c3ccccc23)ccc1F)N1CCN(C(=O)C2CC2)CC1 [olaparib]
[1]; 72 h, read-out: IC50 of the drug alone, SUM149PT tumor organoids, 72 h
  IC50: 170 ± 27 µM
[1]; 72 h, read-out: IC50 of the drug in combination, SUM149PT tumor organoids, 72 h, + non-lethal doses of Compound 6
  IC50: 19 ± 0.56 µM
[1]; read-out: IC50 Olaparib (μM) in SUM149PT, Compound 13 0 μM
  IC50: 400 µM
[1]; read-out: IC50 Olaparib (μM) in SUM149PT, Compound 13 2 μM
  IC50: 41.8 µM
[1]; read-out: IC50 Olaparib (μM) in SUM149PT, Compound 13 2.25 μM
  IC50: 13.4 µM
[1]; read-out: IC50 Olaparib (μM) in SUM149PT, Compound 13 2.5 μM
  IC50: 19 µM
[1]
  increase in potency of the chemotherapy: 10 fold
  improvement of IC50 potency: 9 fold
[2]; combined with Compound 6.11
  enhancement of olaparib potency: ~ 355 fold
[3]; MDA-MB-231, Compound 13 0 μM, read-out: IC50 Olaparib (μM) in MDA-MB-231
  IC50: 102 µM
[3]; MDA-MB-231, Compound 13 2 μM, read-out: IC50 Olaparib (μM) in MDA-MB-231
  IC50: 18.7 µM
[3]; MDA-MB-231, Compound 13 2.25 μM, read-out: IC50 Olaparib (μM) in MDA-MB-231
  IC50: 12.1 µM
[3]; MDA-MB-231, Compound 13 2.5 μM, read-out: IC50 Olaparib (μM) in MDA-MB-231
  IC50: 3.1 µM
[4]; SUM149PT cells, single agent
  cytoplasmic PAR: increased cytoplasmic PAR; also recorded: increase in cytoplasmic PAR
[4]; SUM149PT cells, single agent, 4 h
  nuclear PAR (PARylation): inhibition of nuclear PARylation
[5]; SW-620, read-out: IC50 olaparib, SW620 tumor organoids, combined with Compound 6.11
  IC50: 0.8 µM
[5]; SW-620, read-out: IC50 olaparib, SW620 tumor organoids, olaparib alone
  IC50: 282 µM
[6]
  PARP2 trapping: trapped in a dose-dependent manner both PARP1 and PARP2
[7]
  PARP2 enzyme activity: inhibits both PARP1 and PARP2

## Cc1cc(Nc2ccc(NC(=O)Cc3cc(Br)cs3)cc2)nc(N2CCCC2)n1 [Compound 6.11, 2-(4-bromothiophen-2-yl)-N-(4-((6-methyl-2-(pyrrolidin-1-yl)pyrimidin-4-yl)amino)phenyl)acetamide]
[8]; [11]
  Mean Synergy Score: ~ 72
  maximum synergy score: ~82
[8]; [12]
  Mean Synergy Score: ~ 74
  maximum synergy score: ~100
[1]; read-out: IC50, tumor organoid viability, single agent, SUM149PT (BRCA1 mutant HR-deficient)
  IC50: ~1.7 µM
[1]; combined with 5-FU
  mean synergy score (Bliss): about 60
[1]; combined with Olaparib
  mean synergy score (Bliss): about 58
[1]; combined with docetaxel
  mean synergy score (Bliss): about 56
[9]; combined with 5-FU
  calculated mean synergy score: about 42
[9]; combined with SN-38
  calculated mean synergy score: about 29
[10]
  IC50: ~2.8 µM
[2]; Compound 6.11 2.75 μM combined with 5FU
  synergy score: ~ 30
[3]; MDA-MB-231, MDA-MB-231 (BRCA wildtype HR-proficient), read-out: IC50, tumor organoid viability, single agent
  IC50: ~3.3 µM
[4]; Compound 6.11 combined with doxorubicin
  PAR localization: shifted PAR to the cytoplasm
[4]; SUM149PT cells, single agent
  cytoplasmic PAR: increased cytoplasmic PAR
[6]
  increase in PARP2 trapping: 2 fold

## O=c1[nH]cc(F)c(=O)[nH]1 [Compound 5-FU, 5-fluorouracil]
[8]; Homo sapiens, SW948, read-out: IC50 of chemotherapy alone
  IC50: 302 µM
[8]; SW948 tumor organoids, combined with Compound 6
  increase in potency of the chemotherapy: ~300 fold
[1]; Compound 13 0 μM
  IC50 5-FU (μM) in SUM149PT: Resistant
[1]; Compound 13 2 μM, read-out: IC50 5-FU (μM) in SUM149PT
  IC50: 23.8 µM
[1]; Compound 13 2.25 μM, read-out: IC50 5-FU (μM) in SUM149PT
  IC50: 23 µM
[1]; Compound 13 2.5 μM, read-out: IC50 5-FU (μM) in SUM149PT
  IC50: 14.4 µM
[1]
  increase in potency of the chemotherapy: 10 fold
  improvement of IC50 potency: 10 fold
[9]; Compound 6.11 0 μM
  IC50: 238 µM
[9]; Compound 6.11 4 μM
  IC50: 74.4 µM
[9]; Compound 6.11 4.25 μM
  IC50: 68.7 µM
[9]; Compound 6.11 4.5 μM
  IC50: 38.3 µM
[9]; Compound 7 0 μM
  IC50: 68.2 µM
[9]; Compound 7 7 μM
  IC50: 61.8 µM
[9]; Compound 7 8 μM
  IC50: 56.7 µM
[9]; Compound 7 9 μM
  IC50: 46.7 µM
[9]; Compound 8 0 μM
  IC50: 55.6 µM
[9]; Compound 8 2 μM
  IC50: 66.2 µM
[9]; Compound 8 2.25 μM
  IC50: 60.4 µM
[9]; Compound 8 2.5 μM
  IC50: 53.8 µM
[9]; Compound 12 0 μM
  IC50: 69.7 µM
[9]; Compound 12 3.75 μM
  IC50: 32 µM
[9]; Compound 12 4 μM
  IC50: 16.3 µM
[9]; Compound 12 4.25 μM
  IC50: 15.9 µM
[9]; Compound 13 0 μM
  IC50: 57.2 µM
[9]; Compound 13 5 μM
  IC50: 60.9 µM
[9]; Compound 13 6 μM
  IC50: 58.5 µM
[9]; Compound 13 […]
  IC50: 50.7 µM
[3]; Compound 13 0 μM
  IC50 5-FU (μM) in MDA-MB-231: Resistant
[3]; MDA-MB-231, Compound 13 2 μM, read-out: IC50 5-FU (μM) in MDA-MB-231
  IC50: 23.5 µM
[3]; MDA-MB-231, Compound 13 2.25 μM, read-out: IC50 5-FU (μM) in MDA-MB-231
  IC50: 9.1 µM
[3]; MDA-MB-231, Compound 13 2.5 μM, read-out: IC50 5-FU (μM) in MDA-MB-231
  IC50: 4.6 µM
[5]; SW-620, 72 h, read-out: IC50 5FU, SW620 tumor organoids, 72 h, 5FU alone
  IC50: > 200 µM
[5]; SW-620, 72 h, read-out: IC50 5FU, SW620 tumor organoids, 72 h, + Compound 6.11 2.75 μM
  IC50: 2.88 µM
